According to patent US5484940A, “Substituted 3-indolyl-5-pyrazolone compounds” (priority 1994, dated 1996):

Columns and labels:
[1] = test system: β-amyloid peptide production; assay: Cellular screen for inhibitors of β-amyloid production (ELISA, 293 751 SWE cells); type: cell-based, human; conditions: 2 h pretreatment + 2 h, normalized for cytotoxicity (MTT), concentration not given
Procedure: (§1) This screening assay employed cells (K293=human kidney cell line) which were stably transfected with the gene for amyloid precursor protein 751 (APP751) containing the double mutation Lys651 Met652 to Asn651 Leu652 (APP751 numbering) in the manner described in International Patent Application Publication No. 94/10569^1 and Citron et al.^16. This mutation is commonly called the Swedish mutation and the cells, designated as "293 751 SWE", were plated in Coming 96-well plates at 1.5-2.5×10^4 cells per well in Dulbecco's minimal essential media plus 10% fetal bovine serum. Cell number is important in order to achieve β-amyloid ELISA results within the linear range of the assay (~0.2 to 2.5 ng per mL).
Following overnight incubation at 37° C. in an incubator equilibrated with 10% carbon dioxide, media were removed and replaced with 200 μL of a substituted 3-indolyl-5-pyrazolone (drug) containing media per well for a two hour pretreatment period and cells were incubated as above.
At the end of the pretreatment period, the media were again removed and replaced with fresh drag containing media as above and cells were incubated for an additional two hours. After treatment, plates were centrifuged in a Beckman GPR at 1200 rpm for five minutes at room temperature to pellet cellular debris from the conditioned media. From each well, 100 μL of conditioned media or appropriate dilutions thereof were transferred into an ELISA plate precoated with antibody 266 against amino acids 13-28 of β-amyloid peptide as described in International Patent Application Publication No. 94/10569^1 and stored at 4° C. overnight. An ELISA assay employing labelled antibody 6C6 against amino acids 1-16 of β-amyloid peptide was run the next day to measure the amount of β-amyloid peptide produced.
The results of the β-amyloid peptide ELISA were fit to a standard curve and expressed as ng/mL β-amyloid peptide. […] All results are the mean and standard deviation of at least six replicate assays.

293 751 SWE cells = assay: Cytotoxicity (MTT) in 293 751 SWE cells; type: cell-based, human; conditions: concentration not given
Procedure: as §1
Cytotoxic effects of the compounds were measured by a modification of the method of Hansen, et al.^17. To the cells remaining in the tissue culture plate was added 25 μL of a 3,(4,5-dimethylthiazol-2-yl)2,5-diphenyltetrazolium bromide (MTT) stock solution (5 mg/mL) to a final concentration of 1 mg/mL. Cells were incubated at 37° C. for one hour, and cellular activity was stopped by the addition of an equal volume of MTT lysis buffer (20% w/v sodium dodecylsulfate in 50% dimethylformamide, pH 4.7). Complete extraction was achieved by overnight shaking at room temperature. The difference in the OD562nm and the OD650nm was measured in a Molecular Device's UVmax microplate reader as an indicator of the cellular viability.

Compound	reduction of β-amyloid peptide production as compared to control [1]	cytotoxic effect on the 293 751 SWE cells (293 751 SWE cells)
COc1ccc(C(=O)n2c(C)c(CC3=NN(c4cccc(C(F)(F)F)c4)C(=O)C3)c3cc(OC)ccc32)cc1 [Example 58, 3-[1-(4-methoxybenzoyl)-5-methoxy-2-methyl-3-indolylmethyl]-1-(3-trifluoromethylphenyl)-5-pyrazolone]	at least 20%	did not have a significant cytotoxic effect
COc1ccc2[nH]c(C)c(CC3=NN(C4CCCCC4)C(=O)C3)c2c1 [Example 17, 3-(5-methoxy-2-methyl-3-indolylmethyl)-1-cyclohexyl-5-pyrazolone]	at least 20%	did not have a significant cytotoxic effect
COc1ccc2c(c1)c(CC1=NN(Cc3ccccc3)C(=O)C1)c(C)n2C(=O)c1ccc(Cl)cc1 [Example 13, 3-[1-(4-chlorobenzoyl)-5-methoxy-2-methyl-3-indolylmethyl]-1-benzyl-5-pyrazolone]	at least 20%	did not have a significant cytotoxic effect
COc1ccc2c(c1)c(CC1=NN(c3cccc(NC(C)=O)c3)C(=O)C1)c(C)n2C(=O)c1ccc(Cl)cc1 [Example 41, 3-[1-(4-chlorobenzoyl)-5-methoxy-2-methyl-3-indolylmethyl]-1-(3-acetamidophenyl)-5-pyrazolone]	< 20%	–
Cc1c(CC2=NN(c3cccc(C(F)(F)F)c3)C(=O)C2)c2cc(Cl)ccc2n1C(=O)c1ccc(Cl)cc1 [Example 63, 3-[1-(4-chlorobenzoyl)-5-chloro-2-methyl-3-indolylmethyl]-1-(3-trifluoromethylphenyl)-5-pyrazolone]	at least 20%	did not have a significant cytotoxic effect
COc1ccc2c(c1)c(CC1=NN(c3ccc(C(F)(F)F)cc3)C(=O)C1)c(C)n2C(=O)c1ccc(Cl)cc1 [Example 37, 3-[1-(4-chlorobenzoyl)-5-methoxy-2-methyl-3-indolylmethyl]-1-(4-trifluoromethylphenyl)-5-pyrazolone]	at least 20%	did not have a significant cytotoxic effect
COc1ccc2c(c1)c(CC1=NN(c3cc(C)cc(C)c3)C(=O)C1)c(C)n2C(=O)c1ccc(Cl)cc1 [Example 29, 3-[1-(4-chlorobenzoyl)-5-methoxy-2-methyl-3-indolylmethyl]-1-(3,5-dimethylphenyl)-5-pyrazolone]	at least 20%	did not have a significant cytotoxic effect
O=C1CC(CCCc2c[nH]c3ccccc23)=NN1C1CCCCC1 [Example 49, 3-[3-indolyl-n-propyl]-1-cyclohexyl-5-pyrazolone]	at least 20%	did not have a significant cytotoxic effect
COc1ccc2c(c1)c(CC1=NN(C3CCCC3)C(=O)C1)c(C)n2C(=O)c1ccc(Cl)cc1 [Example 11, 3-[1-(4-chlorobenzoyl)-5-methoxy-2-methyl-3-indolylmethyl]-1-cyclopentyl-5-pyrazolone]	at least 20%	did not have a significant cytotoxic effect
COc1ccc2c(c1)c(CC1=NN(C3CCCCC3)C(=O)C1)c(C)n2Cc1ccccc1 [Example 20, 3-(1-benzyl-5-methoxy-2-methyl-3-indolylmethyl)-1-cyclohexyl-5-pyrazolone]	at least 20%	did not have a significant cytotoxic effect
COc1ccc2c(c1)c(CC1=NN(C)C(=O)C1)c(C)n2C(=O)c1ccc(Cl)cc1 [Example 46, 3-[1-(4-chlorobenzoyl)-5-methoxy-2-methyl-3-indolylmethyl]-1-methyl-5-pyrazolone]	at least 20%	did not have a significant cytotoxic effect
COc1ccc2c(c1)c(CC1=NN(c3cccc(C(F)(F)F)c3)C(=O)C1)c(C)n2C(=O)c1ccc2ccccc2c1 [Example 51]	at least 20%	did not have a significant cytotoxic effect
COc1ccc2c(c1)c(CC1=NN(c3ccc(C(F)(F)F)cc3)C(=O)C1)c(C)n2C(=O)c1ccc(C#N)cc1 [Example 55, 3-[1-(4-cyanobenzoyl)-5-methoxy-2-methyl-3-indolylmethyl]-1-(4-trifluoromethylphenyl)-5-pyrazolone]	at least 20%	did not have a significant cytotoxic effect
COc1ccc(C(=O)n2c(C)c(CC3=NN(C4CCCCC4)C(=O)C3)c3cc(OC)ccc32)cc1 [Example 57, 3-[1-(4-methoxybenzoyl)-5-methoxy-2-methyl-3-indolylmethyl]-1-cyclohexyl-5-pyrazolone]	at least 20%	did not have a significant cytotoxic effect
COc1ccc2c(c1)c(CCC1=NN(C3CCCCC3)C(=O)C1)c(C)n2C(=O)c1ccc(Cl)cc1 [Example 21, 3-[1-(4-chlorobenzoyl)-5-methoxy-2-methyl-3-indolylethyl]-1-cyclohexyl-5-pyrazolone]	at least 20%	did not have a significant cytotoxic effect
CCCC(CCC)N1N=C(Cc2c(C)n(C(=O)c3ccc(Cl)cc3)c3ccc(OC)cc23)CC1=O [Example 16, 3-[1-(4-chlorobenzoyl)-5-methoxy-2-methyl-3-indolylmethyl]-1-(4-heptyl)-5-pyrazolone]	at least 20%	did not have a significant cytotoxic effect
COc1ccc2c(c1)c(CC1=NN(C3CCCCC3)C(=O)C1)c(C)n2C(=O)c1ccc(Cl)c(Cl)c1 [Example 39, 3-[1-(3,4-dichlorobenzoyl)-5-methoxy-2-methyl-3-indolylmethyl]-1-cyclohexyl-5-pyrazolone]	at least 20%	did not have a significant cytotoxic effect
COc1ccc2c(c1)c(CC1=NN(c3cccc(Br)c3)C(=O)C1)c(C)n2C(=O)c1ccc(Cl)cc1 [Example 28, 3-[1-(4-chlorobenzoyl)-5-methoxy-2-methyl-3-indolylmethyl]-1-(3-bromophenyl)-5-pyrazolone]	< 20%	–
COc1ccc2c(c1)c(CC1=NN(c3cccc(C(F)(F)F)c3)C(=O)C1)c(C)n2C(=O)c1ccccc1 [Example 53, 3-[1-benzoyl-5-methoxy-2-methyl-3-indolylmethyl]-1-(3-trifluoromethylphenyl)-5-pyrazolone]	at least 20%	did not have a significant cytotoxic effect
Cc1c(CC2=NN(C3CCCCC3)C(=O)C2)c2cc(Cl)ccc2n1C(=O)c1ccc(Cl)cc1 [Example 62, 3-[1-chlorobenzoyl-5-chloro-2-methyl-3-indolylmethyl]-1-cyclohexyl-5-pyrazolone]	at least 20%	did not have a significant cytotoxic effect
